How the values were obtained:
Sprague Dawley rats [1] = test: Tail flick test after intrathecal administration; assay type: in vivo, rat; conditions: for change in analgesia, antagonist alone: control experiment, p>0.05
Description: (§1) ESP7 was tested clinically in rats to determine analgesic effect and tolerance. The classical tail flick test was used to measure pain response and thermal pain was mimicked using a heat source. This system was controlled using standard opioids. The drug was administered with cyclodextran to increase solubility of the peptide in an aqueous solution.
Adult male Sprague Dawley rats (200-250 g) were implanted with chronic indwelling intrathecal catheters using a modified protocol of Yaksh and Rudy, Physiol. Behav., 17: 1031-1036 (1976). […] The rats were anesthetized throughout the surgery with 5.0% isoflurane. The catheter was inserted through the alanto-occipital membrane and into the intrathecal space using a guide wire. Sutures were used to secure the placement of the catheter. The rats were allowed to recover from surgery for 3-4 days and any rats with neurological impairment were not used for analgesic measurements. Rats were housed separately in a 12 hr light-dark cycle with free access to food and water. During their recovery from surgery, rats were habituated to the laboratory environment and analgesic testing apparatus.
For measurement of the thermal anti-nociceptive properties of the peptides of interest, the tail flick test was employed. Rats were first habituated to the tail flick chamber. During testing, the rats were placed in the chamber and a light source, which generated heat, was directed at their tail. The latency to remove the tail was recorded. The baseline latency was approximately 3.5 sec and the cutoff latency was 10 sec to avoid tissue damage. Three measurements were made at each pre- and post-treatment time point and the results were averaged. Responses were expressed as % maximum possible effect: […]
Rats were given doses of 1.0 μg (FIG. 5), 0.2 μg (FIG. 6), and 0.05 μg (FIG. 7) of ESP7. The desired concentration of the compound (in 10 μl) was injected into the catheter followed by 10 μl saline flush to fill the dead volume. ESP7 was combined with two molecules of cyclodextrin (ESP7+2CD) to increase solubility. […]

μ receptor = molecular target: T1, μ receptor (Rattus norvegicus, UniProt P33535); test: μ receptor binding assay, [3H]DAMGO competition, crude rat brain plasma membranes
T1 construct: frozen rat brains (−80° C.) were homogenized in 40 volumes of standard Tris buffer; from tissue; host or cells: rat brain (crude plasma membranes)
Description: For binding assays to opioid receptors, frozen rat brains (−80° C.) were homogenized in 40 volumes of standard Tris buffer (50 mM Tris HCl (pH 7.4), 0.2 mg/ml BSA, 2.5 mM EDTA, 40 μg/ml bacitracin, 30 μg/ml bestatin and 5 mM MgCl2) and centrifuged at 15,000×g for 20 minutes. 100 mM NaCl was added to the buffer, in order to remove endogenous ligands, and the centrifugation was repeated. After a wash with standard buffer, the membrane preparation was finally resuspended in 10 volumes of incubation buffer (standard buffer with 4 μg/ml leupeptin and 2 μg/ml chymostatin). […] The brain homogenates were used on the day of preparation.
Binding assays for the μ receptor were performed at 4° C. for 90 minutes, as described in Zadina et al., Life Sci, 55: 461-466 (1994). […] After incubation the samples were filtered on a Brandell-Harvester using an appropriate GF/B filter soaked in 50 mM Tris HCl (pH 7.4) and 0.5% PEI. Scintillation fluid was added to the filters in order to solubilize the membranes, and a beta-counter was used to quantify radioactivity.

Sprague Dawley rats [2] = test: Tail flick test after intracerebroventricular administration; assay type: in vivo, rat; conditions: 1.0 μg intracerebroventricular; data not shown
Description: as §1
Adult male Sprague Dawley rats weighing 200-250 g were used. Before surgery, the rats were anesthesized with 0.2-0.3 mL of xylazine (10%) and ketamine (90%). Rats were positioned in a stereotaxic apparatus and the bregma was located. To reach the lateral ventricle, a hole was drilled 0.8 mm caudal and 1.4-1.5 mm left or right of the bregma. The catheter was inserted 4.5 mm deep into the brain and 4.0 cm of polyethylene tubing was connected to the end to the catheter. Screws and dental cement were used to secure the catheter in place. After suturing the skin, the rats were allowed to recover from surgery for 4-5 days. Each rat was housed separately in a 12 hr light-dark cycle with free access to food and water. Rats with any neurological problems were not used in the analgesic testing.
The tail flick assay was used to measure analgesia as described above in Example 2.1. Briefly, the rats were first habituated to the tail flick chamber. […] The latency to remove the tail was recorded. […] Responses were expressed as % maximum possible effect (MPE): [formula]

NK1 receptor = molecular target: T2, NK1 receptor (Rattus norvegicus, UniProt P14600); test: SP (NK1) receptor binding assay, [125I]BH-SP competition, crude rat brain plasma membranes
T2 construct: The same procedure was followed for the SP receptor except the wash with NaCl was eliminated; from tissue; host or cells: rat brain (crude plasma membranes)

rats = test: Tail flick test after intraperitoneal administration; assay type: in vivo, rat; conditions: 1 mg intraperitoneal
Description: as §1
ESP7 was administered intraperitoneally in order to assess the effectiveness of ESP7 systemically. The tail flick assay was used to measure analgesia as described above in Example 2.1. Briefly, the rats were first habituated to the tail flick chamber. During testing, the rats were placed in the chamber and a light source, which generated heat, was directed at their tail. The latency to remove the tail was recorded. The baseline latency was approximately 3.5 sec and the cutoff latency was 10 sec to avoid tissue damage. Three measurements were made at each pre- and post-treatment time point and the results were averaged. Responses were expressed as % maximum possible effect (MPE): [formula]

T2 sequence (P14600 whole entry): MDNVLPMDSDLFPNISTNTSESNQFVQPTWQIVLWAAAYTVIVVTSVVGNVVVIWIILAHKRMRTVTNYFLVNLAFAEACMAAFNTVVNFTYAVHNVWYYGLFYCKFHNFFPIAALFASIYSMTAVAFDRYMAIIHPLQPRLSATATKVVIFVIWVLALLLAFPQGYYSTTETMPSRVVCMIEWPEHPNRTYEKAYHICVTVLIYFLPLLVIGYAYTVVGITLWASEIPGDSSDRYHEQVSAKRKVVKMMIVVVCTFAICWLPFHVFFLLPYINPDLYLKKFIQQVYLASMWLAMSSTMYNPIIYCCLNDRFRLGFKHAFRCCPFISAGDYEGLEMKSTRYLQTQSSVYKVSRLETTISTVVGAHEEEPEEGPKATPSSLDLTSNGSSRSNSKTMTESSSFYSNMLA
T1 sequence (P33535 whole entry): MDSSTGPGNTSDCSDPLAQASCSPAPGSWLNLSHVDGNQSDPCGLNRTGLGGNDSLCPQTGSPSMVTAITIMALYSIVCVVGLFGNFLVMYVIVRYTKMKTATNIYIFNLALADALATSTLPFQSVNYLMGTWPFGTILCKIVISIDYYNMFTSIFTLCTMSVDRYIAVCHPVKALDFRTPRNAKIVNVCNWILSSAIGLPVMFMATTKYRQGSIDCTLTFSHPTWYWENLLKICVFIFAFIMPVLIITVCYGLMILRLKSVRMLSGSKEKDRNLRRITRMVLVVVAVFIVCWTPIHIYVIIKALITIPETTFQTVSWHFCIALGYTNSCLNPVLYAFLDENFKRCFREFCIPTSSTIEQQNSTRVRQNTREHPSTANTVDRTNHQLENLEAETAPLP

| Compound | change in analgesia, antagonist alone (Sprague Dawley rats [1]) | hyperalgesia when naltrexone is given with ESP7+2CD (Sprague Dawley rats [1]; naltrexone with 0.2 μg and 1.0 μg ESP7+2CD intrathecal) | Kd (μ receptor) [nM] | analgesia (tail flick, % MPE) (Sprague Dawley rats [2]) | Kd (NK1 receptor) [nM] | analgesia (tail flick, % MPE) (rats) |
| --- | --- | --- | --- | --- | --- | --- |
| COc1ccccc1CC(=N)N1C[C@@H]2C(=O)CCC(c3ccccc3)(c3ccccc3)[C@@H]2C1 [RP67580] | no effect on the level of analgesia |  |  |  |  |  |
| O=C1CC[C@@]2(O)[C@H]3Cc4ccc(O)c5c4[C@@]2(CCN3CC2CC2)[C@H]1O5 [naltrexone] | produced no change in analgesia | produced some hyperalgesia |  |  |  |  |
| H-YPFFGLM-NH2 [ESP7, Tyr-Pro-Phe-Phe-Gly-Leu-Met-NH2] |  |  | ~300 | produced analgesia | ~200 | produced analgesia as seen with intrathecal administration |
